The text below walks through data of ChEMBL document CHEMBL1201862, “PubChem BioAssay data set” (2004).

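Test compounds were applied to cells in 96-well plates for 48 hours at 5 doses. Here, GI50 denotes the concentration required for 50% inhibition of growth.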 The source made the active and inactive calls. Rule as the data show it: active = GI50 up to about 1.1 µM and inactive = higher.

Some test systems named below: SF-295; HL-60; RPMI-8226; MOLT-4; 786-0; A549; MDA-MB-435; A498; MDA-MB-231; LOX IMVI; NCI-H226; HT-29; M14; TK-10; OVCAR-4; Hs-578T; HOP-92; SK-MEL-2; CAKI-1.
Assay in all cases: growth of human tumour cells (NCI), 48 h

On to `c1cc(CSSCc2ccncc2)ccn1`, for which the GI50 in the assay with SF-295 was 37.6 µM (inactive); in the assay with HL-60, 13.7 µM (inactive); in the assay on RPMI-8226, 9.18 µM (inactive); with MOLT-4, 3.21 µM (inactive); in the assay with 786-0, 10.4 µM (inactive); in the assay with A549, 27.3 µM (inactive). For the same compound, the GI50 in the assay on MDA-MB-435 was 20.6 µM (inactive); in the assay with A498, 42.7 µM (inactive); in the assay with MDA-MB-231, 25.9 µM (inactive); with LOX IMVI, 10.6 µM (inactive); in the assay on NCI-H226 it was 30.6 µM (inactive); in the assay on HT-29 it was 24.2 µM (inactive). Moreover, the GI50 is 11.3 µM (inactive) in the assay with M14; 13.8 µM (inactive) with TK-10; > 74.3 µM (inactive) in the assay on OVCAR-4; 29.2 µM (inactive) in the assay with Hs-578T; 25.9 µM (inactive) in the assay on HOP-92; 27.9 µM (inactive) in the assay on SK-MEL-2. In addition, the GI50 with CAKI-1 is 29.5 µM (inactive).

As to `CCCCCC(=O)Nc1[nH]nnc1C(N)=O`, the GI50 in the assay with SF-295, with HL-60, with RPMI-8226, in the assay on MOLT-4, with 786-0 and in the assay with A549 was > 100 µM (inactive) throughout. Moreover, the GI50 with MDA-MB-435, in the assay on A498, in the assay with MDA-MB-231, in the assay with LOX IMVI, in the assay with NCI-H226 and with HT-29 was > 100 µM (inactive) each time. Besides, the GI50 in the assay with M14 is > 100 µM (inactive); with TK-10 it was > 100 µM (inactive); in the assay on OVCAR-4, > 100 µM (inactive); in the assay on Hs-578T it was > 100 µM (inactive); in the assay with HOP-92, 92.5 µM (inactive); in the assay with SK-MEL-2, > 100 µM (inactive). Besides, in the assay with CAKI-1, the GI50 was > 100 µM (inactive).

In the case of `Clc1ccc(-c2nn3c(COc4cccc(OCc5nnc6sc(-c7ccc(Cl)cc7)nn56)c4)nnc3s2)cc1`, the GI50 with SF-295 was 31.3 µM (inactive); in the assay with HL-60, 21.5 µM (inactive); in the assay on RPMI-8226, 22.1 µM (inactive); in the assay on MOLT-4, 14.3 µM (inactive); in the assay on 786-0, 15.1 µM (inactive); with A549, 25.8 µM (inactive). The GI50 in the assay on MDA-MB-435 is 19.4 µM (inactive); with A498, 15.7 µM (inactive); in the assay with MDA-MB-231, 21.2 µM (inactive); in the assay on LOX IMVI, 26.3 µM (inactive); in the assay on NCI-H226 it was > 100 µM (inactive); with HT-29 it was 24.5 µM (inactive). Besides, the GI50 in the assay on M14 is 27.4 µM (inactive); with TK-10, 36.8 µM (inactive); with OVCAR-4, 12.9 µM (inactive); in the assay with Hs-578T, 59 µM (inactive); in the assay on HOP-92 it was 30.1 µM (inactive); in the assay with SK-MEL-2 it was 58.5 µM (inactive). Further, the GI50 in the assay with CAKI-1 was 22 µM (inactive).

Turning to `CC1(c2cccc(C(F)(F)F)c2)CC(c2cccc(C(F)(F)F)c2)=C(C#N)C(=C(C#N)C#N)N1` (stereo not drawn), the GI50 with SF-295 is 16.6 µM (inactive); in the assay on HL-60, 15.5 µM (inactive); in the assay with RPMI-8226 it was 16.4 µM (inactive); with MOLT-4, 19.2 µM (inactive); in the assay on 786-0, 17 µM (inactive); in the assay with A549 it was 19.5 µM (inactive). Also, the GI50 with MDA-MB-435 was 18.1 µM (inactive); in the assay with A498, 18.1 µM (inactive); in the assay on MDA-MB-231, 23 µM (inactive); with LOX IMVI, 17.7 µM (inactive); with NCI-H226, 18.2 µM (inactive); in the assay on HT-29 it was 18.8 µM (inactive). In addition, the GI50 was 20.2 µM (inactive) in the assay with M14; 16.8 µM (inactive) with TK-10; 16 µM (inactive) in the assay on OVCAR-4; 17.3 µM (inactive) in the assay on Hs-578T; 2.3 µM (inactive) with HOP-92; 19.6 µM (inactive) in the assay with SK-MEL-2. Besides, the GI50 with CAKI-1 was 18.7 µM (inactive).

In the case of `C=C1CCC(CC[C@@H]2CC[C@]3(OC2)O[C@@]2(O)CC[C@]3(C)OC2(C)C)C(C)(C)[C@H]1C/C=C1/C(=O)OC[C@@H]1O` (stereo partly drawn), the GI50 in the assay with SF-295 was 0.348 µM (active); in the assay with HL-60, 0.685 µM (active); with RPMI-8226, 1.62 µM (inactive); in the assay on MOLT-4, 1.59 µM (inactive); in the assay with 786-0 it was 2.96 µM (inactive); in the assay with A549, 3.55 µM (inactive). Also, the GI50 in the assay on MDA-MB-435 is 1.86 µM (inactive); in the assay with A498, 5.93 µM (inactive); with MDA-MB-231, 1.69 µM (inactive); in the assay with LOX IMVI, 0.24 µM (active); in the assay with NCI-H226, 2.29 µM (inactive); with HT-29, 1.63 µM (inactive). The GI50 with M14 was 2.48 µM (inactive); in the assay with TK-10, 6.12 µM (inactive); in the assay with OVCAR-4, 0.263 µM (active); in the assay with Hs-578T, 4.2 µM (inactive); with HOP-92, 2.02 µM (inactive); in the assay with SK-MEL-2, 0.524 µM (active). In the assay on CAKI-1, the GI50 was 5 µM (inactive).

With `CC(C)CC(N)C(=O)NC(C(=O)NC(CCCNC(=N)N)C(=O)NC(CS)C(=O)NC1CSCC(C(=O)NC(Cc2ccccc2)C(=O)NC(C(=O)NC(CCCNC(=N)N)C(=O)O)C(C)C)NC(=O)C2CCCN2C(=O)C(CCCCN)NC(=O)C2CCCN2C(=O)C2CCCN2C(=O)C(Cc2ccc(O)cc2)NC(=O)C(CO)NC(=O)C(CCCCN)NC(=O)C(C(C)O)NC(=O)C(Cc2c[nH]c3ccccc23)NC1=O)C(C)C` (stereo not drawn), the GI50 in the assay with SF-295, in the assay with HL-60, in the assay on RPMI-8226, in the assay with MOLT-4, with 786-0 and in the assay on A549 was > 25 µM (inactive) each time. The GI50 in the assay with MDA-MB-435, with A498, with MDA-MB-231, in the assay on LOX IMVI, in the assay on NCI-H226 and in the assay with HT-29 was > 25 µM (inactive) throughout. Also, the GI50 in the assay with M14, with TK-10, with OVCAR-4, with Hs-578T, in the assay on HOP-92 and in the assay with SK-MEL-2 was > 25 µM (inactive) in each case. Besides, the GI50 in the assay on CAKI-1 was > 25 µM (inactive).

Turning to `O=CN1CCN(C(=O)c2ccco2)C1=S`, the GI50 in the assay on SF-295 is 22.5 µM (inactive); in the assay with HL-60, 3.46 µM (inactive); with RPMI-8226, 2.24 µM (inactive); in the assay with MOLT-4, 8.24 µM (inactive); with 786-0, 3.13 µM (inactive); in the assay with A549, 11.3 µM (inactive). For the same compound, the GI50 with MDA-MB-435 was 5.13 µM (inactive); in the assay with A498 it was 16.5 µM (inactive); in the assay on MDA-MB-231, 17.3 µM (inactive); with LOX IMVI, 3.72 µM (inactive); in the assay with NCI-H226, 22.9 µM (inactive); in the assay with HT-29, 11.3 µM (inactive). Moreover, the GI50 with M14 was 8.85 µM (inactive); in the assay with TK-10, 14.3 µM (inactive); with OVCAR-4, 19.7 µM (inactive); with Hs-578T, 22 µM (inactive); in the assay with HOP-92, 4.12 µM (inactive); in the assay with SK-MEL-2, 17.2 µM (inactive). The GI50 in the assay on CAKI-1 was 5.38 µM (inactive).
